Test results published in ChEMBL document CHEMBL4414672, “Synthesis of certain benzothieno[3,2-d]pyrimidine derivatives as a selective SIRT2 inhibitors” (Eur J Med Chem, 2020).
In brackets after ≈: the same amount, converted by molar mass.

Key:
HL-60(TB) = experiment: Growth inhibition of human HL-60(TB) cells at 10^-5 M incubated for 48 hrs by sulforhodamine B assay; assay type: functional; conditions: HL-60, 48 h, read-out: GI
MDA-MB-468 = experiment: Growth inhibition of human MDA-MB-468 cells at 10^-5 M incubated for 48 hrs by sulforhodamine B assay; assay type: functional; conditions: MDA-MB-468, 48 h, read-out: GI
DU-145 = experiment: Growth inhibition of human DU145 cells at 10^-5 M incubated for 48 hrs by sulforhodamine B assay; assay type: functional; conditions: DU-145, 48 h, read-out: GI
BT-549 = experiment: Growth inhibition of human BT549 cells at 10^-5 M incubated for 48 hrs by sulforhodamine B assay; assay type: functional; conditions: BT-549, 48 h, read-out: GI
MDA-MB-231 = experiment: Growth inhibition of human MDA-MB-231 cells at 10^-5 M incubated for 48 hrs by sulforhodamine B assay; assay type: functional; conditions: MDA-MB-231, 48 h, read-out: GI
UACC-257 = experiment: Growth inhibition of human UACC257 cells at 10^-5 M incubated for 48 hrs by sulforhodamine B assay; assay type: functional; conditions: UACC-257, 48 h, read-out: GI
SR = experiment: Growth inhibition of human SR cells at 10^-5 M incubated for 48 hrs by sulforhodamine B assay; assay type: functional; conditions: read-out: GI
OVCAR-5 = experiment: Growth inhibition of human OVCAR5 cells at 10^-5 M incubated for 48 hrs by sulforhodamine B assay; assay type: functional; conditions: OVCAR-5, 48 h, read-out: GI
MCF7 [1] = experiment: Cytotoxicity against human MCF7 cells assessed as reduction in cell viability after 24 hrs by MTT assay; assay type: functional, cell-based; conditions: MCF7, 24 h
SK-MEL-28 = experiment: Growth inhibition of human SK-MEL-28 cells at 10^-5 M incubated for 48 hrs by sulforhodamine B assay; assay type: functional; conditions: SK-MEL-28, 48 h, read-out: GI
MOLT-4 = experiment: Growth inhibition of human MOLT4 cells at 10^-5 M incubated for 48 hrs by sulforhodamine B assay; assay type: functional; conditions: MOLT-4, 48 h, read-out: GI
NCI-H226 = experiment: Growth inhibition of human NCI-H226 cells at 10^-5 M incubated for 48 hrs by sulforhodamine B assay; assay type: functional; conditions: NCI-H226, 48 h, read-out: GI
HOP-62 = experiment: Growth inhibition of human HOP62 cells at 10^-5 M incubated for 48 hrs by sulforhodamine B assay; assay type: functional; conditions: HOP-62, 48 h, read-out: GI
HCC 2998 = experiment: Growth inhibition of human HCC2998 cells at 10^-5 M incubated for 48 hrs by sulforhodamine B assay; assay type: functional; conditions: HCC 2998, 48 h, read-out: GI
MCF7 [2] = experiment: Growth inhibition of human MCF7 cells at 10^-5 M incubated for 48 hrs by sulforhodamine B assay; assay type: functional; conditions: MCF7, 48 h, read-out: GI
UACC-62 = experiment: Growth inhibition of human UACC62 cells at 10^-5 M incubated for 48 hrs by sulforhodamine B assay; assay type: functional; conditions: UACC-62, 48 h, read-out: GI
HT-29 = experiment: Growth inhibition of human HT-29 cells at 10^-5 M incubated for 48 hrs by sulforhodamine B assay; assay type: functional; conditions: HT-29, 48 h, read-out: GI
786-0 = experiment: Growth inhibition of human 786-0 cells at 10^-5 M incubated for 48 hrs by sulforhodamine B assay; assay type: functional; conditions: 786-0, 48 h, read-out: GI
RXF 393 = experiment: Growth inhibition of human RXF393 cells at 10^-5 M incubated for 48 hrs by sulforhodamine B assay; assay type: functional; conditions: RXF 393, 48 h, read-out: GI
UO-31 [3] = experiment: Cytotoxicity against human UO31 cells assessed as reduction in cell viability after 24 hrs by MTT assay; assay type: functional, cell-based; conditions: UO-31, 24 h
UO-31 [4] = experiment: Growth inhibition of human UO31 cells at 10^-5 M incubated for 48 hrs by sulforhodamine B assay; assay type: functional; conditions: UO-31, 48 h, read-out: GI
CAKI-1 = experiment: Growth inhibition of human Caki1 cells at 10^-5 M incubated for 48 hrs by sulforhodamine B assay; assay type: functional; conditions: CAKI-1, 48 h, read-out: GI

| SMILES | inhibition of growth at 10 µM (HL-60(TB)) | inhibition of growth at 10 µM (MDA-MB-468) | inhibition of growth at 10 µM (DU-145) | inhibition of growth at 10 µM (BT-549) | inhibition of growth at 10 µM (MDA-MB-231) | inhibition of growth at 10 µM (UACC-257) | inhibition of growth at 10 µM (SR) | inhibition of growth at 10 µM (OVCAR-5) | inhibition of growth at 10 µM (SK-MEL-28) | inhibition of growth at 10 µM (MOLT-4) | inhibition of growth at 10 µM (NCI-H226) | inhibition of growth at 10 µM (HOP-62) | inhibition of growth at 10 µM (HCC 2998) | inhibition of growth at 10 µM (MCF7 [2]) | inhibition of growth at 10 µM (UACC-62) | inhibition of growth at 10 µM (HT-29) | inhibition of growth at 10 µM (786-0) | inhibition of growth at 10 µM (RXF 393) | inhibition of growth at 10 µM (UO-31 [4]) | inhibition of growth at 10 µM (CAKI-1) | other results |
| --- | --- | --- | --- | --- | --- | --- | --- | --- | --- | --- | --- | --- | --- | --- | --- | --- | --- | --- | --- | --- | --- |
| NNC1=Nc2c(sc3ccc(Cl)cc23)C(c2cccc([N+](=O)[O-])c2)N1 (stereo not drawn) | 2.98% | 7.99% | -9.18% | -17.8% | 16.3% | -0.19% | 1.98% | -5.19% | -26.6% | 13% | 18.4% | 6.98% | -1.26% | 18.1% | 4.25% | -13.5% | -3.52% | -16.8% | 42.9% | 18.5% | IC50 (MCF7 [1]): 16.4 µg/mL (≈ 43.7 µM); IC50 (UO-31 [3]): 18.3 µg/mL (≈ 49.1 µM) |
| O=[N+]([O-])c1cccc(C2NC(N3CCOCC3)=Nc3c2sc2ccc(Cl)cc32)c1 (stereo not drawn) | -10.4% | -5.77% | -13.7% | -6.2% | 18.3% | -6.32% | 1.5% | -1.26% | -22.1% | 1.35% | 14.4% | 9.52% | -6.02% | 23.1% | 8.77% | -2.72% | -5.37% | -8.09% | 41.8% | 27.7% | IC50 (MCF7 [1]): 10.4 µg/mL (≈ 24.3 µM); IC50 (UO-31 [3]): 3.11 µg/mL (≈ 7.25 µM) |
| S=C1Nc2c(sc3ccc(Cl)cc23)C(c2ccc3ccccc3c2)N1 (stereo not drawn) | -2.53% | 4.47% | -6.73% | -9.88% | 23% | 1.95% | 19.4% | 5.36% | -2.16% | 7.43% | 20.6% | 10.1% | -16.7% | -6.73% | 13.9% | 0.32% | 4.93% | -0.71% | -25.5% | 27.5% | IC50 (MCF7 [1]): 19.6 µg/mL (≈ 51.6 µM); IC50 (UO-31 [3]): 7.91 µg/mL (≈ 20.8 µM) |
| O=C1SC2=Nc3c(sc4ccc(Cl)cc34)C(c3ccc4ccccc4c3)N2C1=O (stereo not drawn) | -4.12% | 11.2% | -1.57% | -19.9% | 18.1% | -0.63% | 26.4% | -1.12% | -13.2% | 11.9% | 24% | 8.58% | -27.7% | 68.7% | 34.2% | -2.87% | 2.6% | 3.64% | 44.4% | 30.1% | IC50 (MCF7 [1]): 23.3 µg/mL (≈ 53.6 µM); IC50 (UO-31 [3]): 46.7 µg/mL (≈ 107 µM) |
| O=[N+]([O-])c1cccc(C2c3sc4ccc(Cl)cc4c3N=C3NN=NN32)c1 (stereo not drawn) | -9.93% | -8.85% | 22% | 9.57% | -4.1% | 3.87% | -7.25% | -6.97% | 3.38% | -1.88% | 11.5% | 0.43% | 1.22% | 15.4% | 21.3% | -2.76% | 9.33% | 0% | 14.5% | -15.7% |  |
| O=C1Nc2c(sc3ccc(Cl)cc23)C(c2cccc([N+](=O)[O-])c2)N1 (stereo not drawn) | 1.94% | 8.51% | -4.61% | 7.02% | 12.5% | 0.85% | 20.8% | 0.73% | -5.57% | 11% | 17.5% | 8.74% | -3.91% | 21.8% | 8.84% | -3% | 4.42% | -8.11% | 35.2% | 20.3% |  |
| N=C1Nc2c(sc3ccc(Cl)cc23)C(c2ccccc2O)N1 (stereo not drawn) | -8.53% | 2.58% | 23.3% | 17.5% | -5.69% | -10.3% | 10.2% | -1.61% | -16.7% | 0.44% | 12.7% | 9.32% | -22.2% | 13.9% | 8.57% | -6.21% | -0.24% | 3.66% | 11.9% | -15.6% |  |
| N=C1Nc2c(sc3ccc(Cl)cc23)C(c2cccc([N+](=O)[O-])c2)N1 (stereo not drawn) | 5.44% | 1.02% | 20.5% | 5.75% | -0.16% | 9.45% | -3.11% | -1.04% | 4.08% | 21.2% | 14.4% | -6.16% | 9.09% | 10.7% | 23.1% | 1.65% | 16.5% | 4.42% | 11.1% | -10.8% |  |
| N=C1Nc2c(sc3ccc(Cl)cc23)C(c2cccc(Br)c2)N1 (stereo not drawn) | -2.27% | 13.6% | -10.7% | -21.8% | 12.6% | 1.22% | 22.4% | -3.33% | -17.9% | 7.81% | 21.6% | 8.49% | -13.8% | 25.6% | 16.5% | -3.97% | 5.21% | -10.1% | 38.3% | 20.5% |  |
| O=C1/C(=C\c2ccccc2O)Sc2ccc(Cl)cc21 | -1.87% | -4.1% | -12.3% | -20.1% | 11% | -1.33% | 26.2% | -0.88% | -14.6% | 11.4% | 4.98% | 5.99% | -25.6% | -12.3% | 22.3% | -12.2% | -0.39% | -3.05% | -16% | 15.9% |  |
